These results are taken from patent US8415289B2, “Bacterial-derived BLIS for treatment of acne” (The Trustees of the University of Pennsylvania, priority 2005, dated 2013).

The assay relates to S. salivarius. The assay can be described thus: Etest MIC susceptibility of clinical S. salivarius isolates to antibiotics. In kind it is cell-based, Streptococcus salivarius. The method, then:
The dorsum of the tongue was swabbed and the specimen collected using a BBL CultureSwab Collection and Transport System (Difco, Detroit, Mich.). The sterile cotton stick was drawn across the dorsum of the tongue 10-12 times while maintaining pressure. Swabs were stored at 4° C. for no more than 24 h. Cultures were diluted 10 and 100-fold using Tryptic Soy Broth (Difco, Detroit, Mich.), and diluted cultures directly inoculated on mitis-salivarius agar (Difco, Detroit, Mich.) using sterile technique. Plates were incubated upside down at 37° C. in 5% carbon dioxide for 24 h. Colonies were screened by morphology consistent with S. salivarius (large, soft, fluffy colonies due to levan production from the sucrose in the agar). This is the standard method used to screen for S. salivarius (24;24). All samples identified based on visual morphology were frozen and stored for subsequent testing (BLIS assays and resistance testing).
Colonies identified as S. salivarius by morphology were tested for susceptibility to clindamycin, erythromycin and tetracycline using the Etest MIC method. Etest strips were purchased from AB Biodisk (Piscataway, N.J., USA), and were used in accordance with the manufacturer's instructions. The concentration gradient of each antimicrobial agent on the Etest strips was 0.016-256 ug/ml. MICs were read directly from the test strip where the zone of inhibition intersected the MIC scale on the strip. Zones of inhibition were compared with standard values (NCCLS M100-S10) to assign a designation of “susceptible,” “intermediate”, or “resistant” to each antimicrobial agent.
Secondarily, determination was made as to whether the S. salivarius recovered was resistant to clindamycin, erythromycin, and tetracycline. Chi-squared analyses were performed to detect a difference among Groups Ia, Ib, and II. We further stratified the acne patients into those receiving oral and/or topical antibiotics, and no antibiotics. These findings were represented as simple percentages, allowing for qualitative comparisons among these groups. […] This accounts for the discrepancy between the numerators in Table 2 and the denominators in Table 3.

The mark [1] stands for this setting: Group II: no acne, no antibiotics, 15 isolates, NCCLS M100-S10.
Where [2] appears, read: Group Ia: acne, using antibiotics, 13 isolates, NCCLS M100-S10.
Where [3] appears, read: Group Ib: acne, not using antibiotics, 5 isolates, NCCLS M100-S10.

For `CCC[C@@H]1C[C@@H](C(=O)N[C@@H]([C@H]2O[C@H](SC)[C@H](O)[C@@H](O)[C@H]2O)[C@H](C)Cl)N(C)C1` [Clindamycin, clindamycin], the “Proportion of antibiotic-resistant Streptococcus salivarius in the oropharynx” value (shortened to “Proportion”) under setting [1] is on record as 1/15 (7%); the “Proportion” value (Group II: no acne, no antibiotics, 15 isolates, NCCLS M100-S10, listed as clindamycin) was 7%; the “Proportion” value under setting [2] is on record as 9/13 (69%); the “Proportion” value (Group Ia: acne, using antibiotics, 13 isolates, NCCLS M100-S10, listed as clindamycin) is on record as 69%; the “Proportion” value under setting [3] is 1/5 (20%); the “Proportion” value (Group Ib: acne, not using antibiotics, 5 isolates, NCCLS M100-S10, listed as clindamycin) amounted to 20%.

Turning to `CC[C@H]1OC(=O)[C@H](C)[C@@H](O[C@H]2C[C@@](C)(OC)[C@@H](O)[C@H](C)O2)[C@H](C)[C@@H](O[C@@H]2O[C@H](C)C[C@H](N(C)C)[C@H]2O)[C@](C)(O)C[C@@H](C)C(=O)[C@H](C)[C@@H](O)[C@]1(C)O` [Erythromycin, erythromycin], the “Proportion” value runs as follows: under setting [1], 3/15 (20%); (Group II: no acne, no antibiotics, 15 isolates, NCCLS M100-S10, listed as erythromycin) 20%; under setting [2], 9/13 (69%); (Group Ia: acne, using antibiotics, 13 isolates, NCCLS M100-S10, listed as erythromycin) 69%; under setting [3], 2/5 (40%); (Group Ib: acne, not using antibiotics, 5 isolates, NCCLS M100-S10, listed as erythromycin) 40%.

Take `CN(C)[C@@H]1C(O)=C(C(N)=O)C(=O)[C@@]2(O)C(O)=C3C(=O)c4c(O)cccc4[C@@](C)(O)[C@H]3C[C@@H]12` [Tetracycline, tetracycline]: the “Proportion” value is, setting by setting: under setting [1], 4/15 (27%); (Group II: no acne, no antibiotics, 15 isolates, NCCLS M100-S10, listed as tetracycline) 27%; under setting [2], 10/13 (77%); (Group Ia: acne, using antibiotics, 13 isolates, NCCLS M100-S10, listed as tetracycline) 77%; under setting [3], 2/5 (40%); (Group Ib: acne, not using antibiotics, 5 isolates, NCCLS M100-S10, listed as tetracycline) 40%.
